Literature values, collected in patent publication US7388012B2, “(Hydrazido)(amino)thiophene compounds” (OSI Pharmaceuticals, Inc., priority 2004, dated 2008).
Counter-ions that a name gives are not always drawn.

Assays:
[1] = tested on: MO7e human leukemia cells
[2] = tested on: MO7e human leukemia cells; remark: listed apart in the source

In the case of `Cc1ccc(NC(=O)c2ccc(CN3CCN(C)CC3)cc2)cc1Nc1nccc(-c2cccnc2)n1` [Gleevec, imatinib mesylate], the “Kit ligand-stimulated growth of MO7e human leukemia cells” value ([1]; Kit ligand-stimulated) is given as “inhibited”, the “apoptosis of MO7e human leukemia cells” value ([1]; Kit ligand-stimulated conditions) is given as “induces apoptosis” and the “GM-CSF stimulated growth of MO7e human leukemia cells” value [2] is given as “not affected”.
